In a melting point compilation (Tetko et al.; mined from patent text by program, amines drawn as free bases though some values may be those of a salt):

melting point [°C] | SMILES
191 to 192 | Brc1ccccc1Sc1nc2ccccc2n2cncc12
188 to 190 | CCCCN1CCN(Cc2nc(-c3ccc4c(c3)Nc3ccccc3S4)cs2)CC1
158 | O=C(NC(Cc1ccc(-c2cccc3ccccc23)cc1)C(=O)O)C(CS)Cc1ccccc1 (configuration not stated)
248 | CCCC1=C(C#N)C(c2ccccc2Cl)c2c[nH]nc2N1 (configuration not stated)
48 to 50 | CC(Cl)OC(=O)C=Cc1cc(N=C=O)ccc1Cl (configuration not stated)
67 to 68 | Fc1ccc(-c2nc(C(F)(F)F)nc(Cl)c2-c2ccccc2)cc1
148 | Cc1oc(Cc2cccc(Br)c2)c(C(=O)c2cc(C(C)C)c(OS(=O)(=O)c3ccc(C(=O)O)c(O)c3)c(C(C)C)c2)c1C
140 to 141 | Cc1cccc(Cn2cccc2C(=O)CC(=O)C(=O)O)c1
177 to 179 | CC(C)On1c(C(C)C)nc2c(N)nc3ccccc3c21
104 to 106 | CC(=O)Oc1ccc(C#Cc2ccccc2)cc1
176 to 177 | CC(O)(c1cccc(C(F)(F)F)c1)c1cc2cccc(-c3cccc(C(=O)NCCO)c3)c2s1 (configuration not stated)
91 to 94 | Cc1cc(C)cc(C(=O)N(C)[C@H](Cc2ccccc2)C(=O)N[C@@H](Cc2c[nH]c3ccccc23)C(=O)O)c1
87 to 90 | CCN(CC)CCC1(C#N)c2ccccc2COc2ccccc21 (configuration not stated)
145 to 147 | COc1ccc2[nH]c(S(=O)Cc3nccc(N(C)C)c3F)nc2c1 (configuration not stated)
139 to 142 | CCOC(=O)C(=CNc1nonc1C)C(=O)c1cc(F)c(Cl)nc1Cl
93.5 to 103 | O=C(CCCC=CCC1C(O)CC(O)C1C=CC(O)CCc1ccccc1)ON1C(=O)CCC1=O (configuration not stated)
200 to 203 | CCOC(=O)c1cnc2sc(S(=O)(=O)Cc3ccccc3)nn2c1=O
98 to 99 | COC(=O)CCc1cc2cc(Cl)ccc2n1S(=O)(=O)c1ccc(OC)cc1
81 to 84 | CN(C(CCN1C(=O)c2ccccc2C1=O)C(=O)NO)S(=O)(=O)c1ccc(Oc2cccc(Cl)c2)cc1 (configuration not stated)
191 to 192 | COc1cc(Nc2nccc(-c3ccc(Cl)nc3)n2)cc(OC)c1OC
138 to 140 | N#CC(Cc1c[nH]cn1)(c1ccc(Cl)cc1)c1cccc(Cl)c1 (configuration not stated)
289 to 291 | O=C(O)c1ccc(COc2ccc3cc(-c4ccc(-c5ccccc5)[nH]4)ccc3c2)c(C(=O)O)c1
249 to 251 | O=C(Nc1ccc2cc(CN3CCCC3)cnc2c1)N1CCC(c2ccc(Cl)cc2)CC1
95 to 99 | CON=C(Cn1ncc(-c2ccc(S(C)(=O)=O)cc2)c(-c2ccc(F)cc2)c1=O)c1ccccc1
148 to 150 | CC(C)c1cccc(C(C)C)c1-c1cc(OCc2ccccc2)ccc1CC(NC(c1ccccc1)c1ccccc1)C(N)=O (configuration not stated)
235 to 237 | CC(c1ccccc1)c1n[nH]c2c1c(=O)n(-c1cccc(C(F)(F)F)c1)c1ncccc21 (configuration not stated)

melting point [°C] | SMILES
110 to 113 | CS(=O)(=O)c1ccc(-c2cnn(-c3cccc(Cl)c3)c(=O)c2OCc2ccccc2)cc1
92 to 93 | COc1ccc(CC2CCc3ncc(C)cc3C2=O)cc1 (configuration not stated)
267 to 268 | Cc1c(Br)c(=O)n(C2CCCC2)c2nc(Nc3ccccn3)ncc12
283 to 285 | COc1ccc(Cl)cc1NC(=O)NCc1ccc2c(c1)CN(C1CCC(=O)NC1=O)C2=O (configuration not stated)
126 to 128 | CC(c1ccccc1N1CCCCC1)C(C(N)=O)c1ccc(C(=O)OCc2ccccc2)cc1 (configuration not stated)
223 to 225 | Cc1ccc(NC(=O)c2ccc3c(c2)C(=O)N(c2c(C)cccc2C)C3=O)cc1C
111 to 112 | CC(C)c1cc(CCCOc2ncccc2CC(=O)O)n(Cc2ccc(Cl)cc2Cl)n1
50 | N#Cc1cccc(S(=O)(=O)N2c3ccccc3C[C@H]2C(=O)NCCc2ccccc2)c1
112 to 113 | Clc1ccc(-c2nc3n(c2Br)CCCC3)c(Cl)c1
223 to 225 | C/C(=C/c1ccc(C(=O)O)cc1)c1cc2c(cc1C)CCC(C)(C)CC2
50 to 53 | CC(=O)NC(Cc1c[nH]c2ccccc12)C(=O)CCc1cc(C(F)(F)F)cc(C(F)(F)F)c1 (configuration not stated)
157 to 159 | O=C(O)C(=O)CC(=O)c1ccnn1Cc1ccc(F)cc1
133 to 134 | CNC(=O)c1cc2c(Oc3ccc(COCCOC)cc3)cncc2s1
134 to 138 | COC(=O)c1ccccc1C1=NC(C)(C(C)C)C(=S)N1 (configuration not stated)
98 to 99 | CC(=O)OCc1nc(C#N)cc(OCc2ccccc2)c1OCc1ccccc1
191 to 193 | COc1ccc(O)c(C(=O)Nc2ccccc2C(=O)NCCCC(=O)O)c1
195 to 196 | COc1ccnc(C(=O)c2[nH]c3cc(Cl)ccc3c2N)c1
206 to 209 | COc1ccc(C(C)C)cc1-c1cc(-c2nnnn2CCc2ccccc2)c(O)cc1O
202 to 204 | Cc1cnnc2c(-c3ccc(F)cc3)c(-c3ccncc3)nn12
198 to 200 | NCCCC1(C(N)=O)c2ccccc2-c2ccccc21
260 | O=C(O)CN1C(=O)c2cccc3c(Cl)ccc(c23)C1=O
> 250 | NCc1ccc(N2CCN(c3ccc(OCC(=O)O)cc3)C2=O)cc1
69 to 70 | CCOC(=O)CCCCCN(NS(=O)(=O)c1ccc(Cl)cc1)C(=O)Nc1cc(OC)cc(C(C)(C)C)c1O
192 to 194 | CCCCOc1ccc(C(=O)N[C@@H]2COc3cccc(N4CCN(C)CC4)c3C2)cc1
158 to 161 | Cc1cc(-c2cccc(C#N)c2)c(C(=O)NCCN2CCOCC2)c(C)n1

More lines, now with the values behind:

SMILES | melting point [°C]
N#Cc1cnc2cc(-c3csc(CN4CCOCC4)c3)ccc2c1Nc1ccc(Cc2ccccc2)cc1 | 228 to 230
c1ccc(C(Oc2ccncc2)c2ccccc2)cc1 | 68 to 70
O=C(Nc1nccs1)C(CC1CCCC1)c1ccc([N+](=O)[O-])cc1 (configuration not stated) | 134 to 136
COc1cc(CCNC=O)cc2c1OCO2 | 108 to 110
O=C1CC(Br)(CC(Br)(Br)Br)O1 (configuration not stated) | 71 to 73
CCc1cc(C)cc(CC)c1C1C(=O)CC(CC(C)S(=O)CC)CC1=O (configuration not stated) | 58 to 61
COc1cccc(C2(O)CCN(C)CC2)c1 | 111 to 113
CNc1cc(F)c(C#N)cc1F | 160 to 163
O=C(Oc1cccc2c(C(=O)c3ccc(F)cc3)c(-c3ccc(OCCN4CCCC4)cc3)sc12)c1ccc(F)cc1 | 64 to 68
Cc1c(F)cc(C(C)(C)C)c(O)c1-c1nc2cc(S(=O)(=O)C(F)(F)F)ccc2[nH]1 | 245 to 247
Cc1ccc(N)c(C)c1C1OCCO1 | 100 to 103
Cc1cc(C2=C(C=O)C(C)(C)CC(C)(C)C2)ccc1F | 50.5 to 51.5
Cc1ccc(S(=O)(=O)N2CC(CO)(C(=O)O)C2)cc1 | 148 to 150
Cc1oc(-c2ccc(F)cc2)cc1C(C)O (configuration not stated) | 50 to 52
C#CCOc1cc(OCC=C)ccc1-c1nc2cnncc2[nH]1 | 265
CC(=NNc1nc(Cl)c(-c2c(F)cc(F)cc2F)c(NC(C)C(F)(F)F)n1)C(F)(F)F (configuration not stated) | 205 to 207
COC(=O)c1cnc(OC)c([N+](=O)[O-])c1 | 118 to 119
CN1C(=O)CCCc2ccc([N+](=O)[O-])cc21 | 151 to 152
O=C(O)CCNC(=O)[C@H](Cc1ccc(-c2ccccc2)cc1)NCP(=O)(O)Oc1ccccc1 | 222 to 223
CN(c1cc(N2C(=O)C3CC(Cl)CN3C2=O)c(F)cc1Cl)S(=O)(=O)CCl (configuration not stated) | 119 to 124
CCC(Cl)(CC)CC(=O)c1cc(C(C)(C)C)c(O)c(C(C)(C)C)c1 | 72
CCOc1ccc2c(c1)n(C13CC4CC(CC(C4)C1)C3)c(=O)n2S(=O)(=O)c1ccc(N)cc1OC | 248
Cc1oc2c(Br)cc(C(CCOS(C)(=O)=O)CCOS(C)(=O)=O)cc2c1C | 154 to 156

SMILES | melting point [°C]
CN(C(=O)c1ccc2nonc2c1)C1CCCC1 | 110 to 111
CCOCc1cc2c(N=C=S)cccc2cn1 | 66
O=C(O)[C@@H]1Cc2ccccc2C[C@H]1C(=O)O (relative stereo) | 229 to 232
CC(=O)Cn1cnc2c1c(=O)[nH]c(=O)n2C | < 295
Cn1c(SCCO)nnc1SCCO | 87 to 88
O=c1[nH]nnn1-c1ccc([N+](=O)[O-])cc1F | 148 to 150
OC1CSC(Oc2cncc(-c3ccncc3Cl)c2)C(O)C1O (configuration not stated) | 208
COc1cc2c(c(OC)c1)C1CCCCC1C(=O)C2 (configuration not stated) | 130 to 131
CCCCCCc1cc(-c2cccs2)n[nH]1 | 53 to 55
O=C(Cc1ccc2ccccc2n1)NC1CCC2(O)C3Cc4ccc(O)c5c4C2(CCN3CC2CC2)C1O5 (configuration not stated) | 212 to 214
Cc1[nH]nc(Oc2c(Cl)cc(C(F)(F)F)cc2Cl)c1C | 220 to 223
O=C(c1ccc(C(F)(F)F)cc1O)N1CCN(c2ccc(OC[C@H]3CCn4cc([N+](=O)[O-])nc4O3)cc2)CC1 | 217 to 220
NCC1(c2cccc(C(F)(F)F)c2)CCN(C(=O)CN2CCN(c3cnccn3)CC2)CC1 | 152 to 153
C=CC(CC(O)C(CC1CCCCC1)NC(=O)C(Cc1c[nH]cn1)NC(=O)C(Cc1ccccc1)N(C)C(=O)CC(C)(C)C)C(C)C (configuration not stated) | 126
CC/C(=C(/C)C#N)c1cccc(O)c1 | 80 to 83
CC(C)(C)OC(=O)NC1CCCOCC=CC2CC2(C(=O)NS(=O)(=O)C2CC2)NC(=O)C2CC(OC(=O)c3ccc(-c4ccccc4)cc3)CN2C1=O (configuration not stated) | 160 to 162
CCCc1cc(OC)c(OC)c(C(=O)NC[C@@H]2CCCN2CC)c1OC | 68 to 70
C#CCNC(=O)C(C#N)C(=O)C1CC1 (configuration not stated) | 128 to 129
COc1ccc(C(O)CN2CCN(C(c3ccccc3)c3ccccc3)CC2)c(OC)c1 (configuration not stated) | 116
Cc1cc(C(C)(C)C)c(O)c(S(N)(=O)=O)c1 | 114 to 116
Cc1cc(C)n(-c2ccc(N(C)N)nn2)n1 | 93 to 94
CCCCCCCCCCC[C@@H](C[C@@H]1OC(=O)[C@H]1CCCCCC)OC(=O)[C@H](CC(C)C)NC(=O)OCc1ccccc1 | 43 to 46
CCCc1c(C(=O)C2CCCCC2)c2ccc(C(N)=O)cc2n1Cc1ccccc1Cl | 208 to 210
